These results are taken from patent US12059472B2 (Bayer Aktiengesellschaft, priority 2016, dated 2024).

As a reminder, the IC50 is the concentration at which inhibition is half-maximal. For orientation: Papp B→A means how fast a substance crosses the layer from the basolateral side.

In data set [1] the test system is KPL4: human breast cancer cell line. The experiment in a line: Cytotoxic effect on KPL4 cells (MTT assay). It counts as cell-based. The settings on record: Table 2, active metabolites. On the procedure:
The analysis of the cytotoxic effects of the ADCs was carried out with various cell lines: • NCI-H292: human mucoepidermoid lung carcinoma cells, ATCC-CRL-1848, standard medium: RPMI 1640 (Biochrom; #FG1215, stab. glutamine)+10% FCS (Sigma; #F2442), TWEAKR-positive; EGFR-positive. • BxPC3: human pancreas carcinoma cells, ATCC-CRL-1687, standard medium: RPMI 1640 (Biochrom; #FG1215, stab. glutamine)+10% FCS (Sigma; #F2442), TWEAKR-positive. • LoVo human colorectal cancer cells, ATCC No. CCL-229, cultivation for MTT assay: standard medium: Kaighn's+L-glutamine (Invitrogen 21127)+10% heat inactivated FCS (from Gibco, No. 10500-064). Cultivation for CTG assay: RPMI 1640 (Biochrom; #FG1215, stab. glutamine)+10% FCS (Sigma #F2442). […]
The cells were cultivated by the standard method, with the growth media specified under C-1a. […] After 96 h, the cell proliferation was detected using the MTT assay (ATCC, Manassas, Virginia, USA, catalogue No. 30-1010K). […] The dye formed was detected at 570 nm (Infinite M1000 pro, Tecan). The measured data were used to calculate the IC50 of the growth inhibition using the DRC (dose response curve). […]
For orientation: Tetrazolium assays rely on reduction of a dye to a coloured formazan, in cell work by metabolically active cells.

Data set [2] deals with SK-HEP-1: human liver cell cancer line. The experiment in a line: Cytotoxic effect on SK-HEP-1 cells (MTT assay). As to conditions: SK-HEP1, Table 2, active metabolites. It counts as cell-based. As for the experimental part:
(§1) The cells were cultivated by the standard method as stated by the American Tissue Culture Collection (ATCC) or the Leibniz-Institut DSMZ-Deutsche Sammlung von Mikroorganismen und Zellkulturen GmbH (DSMZ) for the cell lines in question.
The cells were then incubated in an incubator at 37° C. and 5% carbon dioxide. After 48 h, the medium was replaced. […] To this end, the MTT reagent was incubated with the cells for 4 h, followed by lysis of the cells overnight by addition of the detergent. The dye formed was detected at 570 nm (Infinite M1000 pro, Tecan). The measured data were used to calculate the IC50 of the growth inhibition using the DRC (dose response curve). The proliferation of cells which were not treated with test substance but were otherwise identically treated was defined as the 100% figure.

Data set [3] is described as follows: Caco-2 flux assay for cell permeability. It counts as in vitro ADME. As to conditions: human; Caco-2, basal to apical, 2 hours. As for the experimental part:
The cell permeability of a substance can be investigated by means of in vitro testing in a flux assay using Caco-2 cells [M. D. Troutman and D. R. Thakker, Pharm. […] For this purpose, the cells were cultured for 15-16 days on 24-well filter plates. For the determination of permeation, the respective test substance was applied in a HEPES buffer to the cells either apically (A) or basally (B) and incubated for 2 hours. After 0 hours and after 2 hours, samples were taken from the cis and trans compartments. The samples were separated by HPLC (Agilent 1200, Böblingen, Germany) using reverse phase columns. The HPLC system was coupled via a Turbo Ion Spray Interface to a Triple Quadropol mass spectrometer API 4000 (AB SCIEX Deutschland GmbH, Darmstadt, Germany).
Of critical importance for toxophors which are released intracellularly is the permeability from B to A [Papp (B-A)] and the ratio of Papp (B-A) to Papp (A-B) (efflux ratio): the lower this permeability, the slower the active and passive transport processes of the substance through the monolayer of Caco-2 cells.
A general note: Caco-2 cells form a polarised layer with tight junctions and transporters.

Data set [4] concerns NCI-H292: human mucoepidermoid lung carcinoma cells. In words: Cytotoxic effect on NCI-H292 cells (MTT/CTG assay). It counts as cell-based. The settings on record: Table 2, active metabolites, MTT. On the procedure:
as §1
The cells were then incubated in an incubator at 37° C. and 5% carbon dioxide.
The cells were then incubated in an incubator at 37° C. and 5% carbon dioxide. After 48 h, the medium was replaced. […] To this end, the MTT reagent was incubated with the cells for 4 h, followed by lysis of the cells overnight by addition of the detergent. The dye formed was detected at 570 nm (Infinite M1000 pro, Tecan).

For `CC(C)(C)[C@H](c1cc(-c2cc(F)ccc2F)cn1Cc1ccccc1)N(CC[C@H](N)C(=O)NCCC(=O)N[C@H](CCC(=O)O)C(=O)O)C(=O)CO` [Example M3, N-{(2S)-2-Amino-4-[{(1R)-1-[1-benzyl-4-(2,5-difluorophenyl)-1H-pyrrol-2-yl]-2,2-dimethylpropyl}(glycoloyl)amino]butanoyl}-beta-alanyl-D-glutamic acid], the figures for the 50% inhibitory concentration (IC50) in data set [1], in data set [2] and in data set [4] were 173 nM, 14.6 nM and 174 nM, respectively. The same compound gave a basolateral-to-apical permeability (Papp B→A) at 2 h in data set [3] of 0.27 ×10⁻⁶ cm/s.
